This is an account of results in patent publication US6649614B2, “Use of a NK-1 receptor antagonist and an antidepressant and/or an anti-anxiety agent for treatment of depression or anxiety” (Merck Sharp & Dohme Ltd., priority 1996, dated 2003).

The subject of one test is gerbils. The test can be described thus: Gerbil foot-tapping (CNS penetration) assay. The following applies: for gerbil foot-tapping (5 mins.) ID50 / gerbil foot-tapping (24 hrs.) ID50: i.v.; for gerbil foot-tapping (5 mins.) ID50: 5 mins. before central NK-1 agonist challenge; for gerbil foot-tapping (24 hrs.) ID50: 24 hrs. before central NK-1 agonist challenge. The test is classed as in vivo, Mongolian gerbil (Meriones unguiculatus). From the text: ASSAY 3: Gerbil Foot-tapping (CNS Penetration) Assay
CNS-penetrant NK-1 receptor antagonists for use in the present invention can be identified by their ability to inhibit foot tapping in gerbils induced by anxiogenic agents (such as pentagastrin) or central infusion of NK-1 receptor agonists such as GR73632, or caused by aversive stimulation such as foot shock or single housing, based on the method of Rupniak & Williams, Eur. J. Pharmacol., 1994, 265, 179.
Male or female Mongolian gerbils (35-70 g) are anaesthetised by inhalation of an isoflurane/oxygen mixture to permit exposure of the jugular vein in order to permit administration of test compounds or vehicle in an injection volume of approximately 5 ml/kg i.v. Alternatively, test compounds may be administered orally or by subcutaneous or intraperitoneal routes. A skin incision is then made in the midline of the scalp to expose the skull.

For a further test, the system named is ferrets. The test can be described thus: Ferret emesis (cisplatin-induced). The test is classed as in vivo. The following applies: p.o., 60 minutes before cisplatin 10 mg/kg i.v. From the text:
ASSAY 4: Ferret Emesis […]

The next test has as its system guinea-pig pups. The test is described as follows: Separation-induced vocalisation in guinea-pig pups. The test is classed as in vivo. Particulars: for attenuation of separation-induced vocalisations compared with baseline: 30 minutes before isolation. From the text:
ASSAY 2: Separation-induced Vocalisation
Male and female guinea-pigs pups are housed in family groups with their mothers and littermates throughout the study. Experiments are commenced after weaning when the pups are at least 2 weeks old. Before entering an experiment, the pups may be screened to ensure that a vigorous vocalisation response is reproducibly elicited following maternal separation. The pups are placed individually in an observation cage (approximately 55 cm×39 cm×19 cm) in a room physically isolated from the home cage for approximately 15 minutes and the duration and/or number of vocalisation during this baseline period is recorded. […] The duration and/or number of vocalisation on drug treatment days may be expressed as a percentage of the pre-treatment baseline value for each animal or compared with values obtained in vehicle-treated animals. The same subjects may be retested once weekly for up to 6 weeks.

Take `C[C@@H](O[C@H]1OCCN(Cc2n[nH]c(=O)[nH]2)[C@H]1c1ccc(F)cc1)c1cc(C(F)(F)F)cc(C(F)(F)F)c1` [2-(R)-(1-(R)-(3,5-bis(trifluoromethyl)phenyl)ethoxy)-3-(S)-(4-fluorophenyl)-4-(3-(5-oxo-1H,4H-1,2,4-triazolo)methyl)morpholine]: in the test on gerbils, the “gerbil foot-tapping (5 mins.) ID50” value was “ID50 = 0.36 mg/kg i.v” and the “gerbil foot-tapping (24 hrs.) ID50” value is given as “ID50 = 0.33 mg/kg i.v”. Further, the “ID90 in the ferret emesis assay” value in the test with ferrets was less than 3 mg/kg p.o. Besides, the “guinea-pig vocalisation ID50” value with guinea-pig pups (p.o., 4 hrs. pretreatment) is “ID50 = 0.73 mg/kg p.o”.

In the case of `C[C@@H](O[C@H]1OCCN(Cc2nn[nH]c2CN(C)C)[C@H]1c1ccccc1)c1cc(C(F)(F)F)cc(C(F)(F)F)c1` [Test Compound A, 2-(R)-(1-(R)-(3,5-bis(trifluoromethyl)phenyl)ethoxy)-4-(5-(dimethylamino)methyl-1,2,3-triazol-4-yl)methyl-3-(S)-phenylmorpholine], in the test with gerbils, the “gerbil foot-tapping (5 mins.) ID50” value is “ID50 = 0.12 mg/kg i.v” and the “gerbil foot-tapping (24 hrs.) ID50” value is “ID50 = 0.17 mg/kg i.v”. For the same molecule, the “attenuation of separation-induced vocalisations compared with baseline” value (“attenuation … compared with baseline” below) with guinea-pig pups (0.25 mg/kg s.c. alone) is recorded as “approximately 25%”. Besides, in the test on guinea-pig pups (s.c.), the “guinea-pig vocalisation ID50” value is listed as “ID50 = 0.5 mg/kg s.c”.

In the case of `C[C@@H](O[C@@H]1OCCN(Cc2nn[nH]c2CN(C)C)[C@@H]1c1ccccc1)c1cc(C(F)(F)F)cc(C(F)(F)F)c1` [Test Compound B, 2-(S)-(1-(R)-(3,5-bis(trifluoromethyl)phenyl)ethoxy)-4-(5-(dimethylamino)methyl-1,2,3-triazol-4-yl)methyl-3-(R)-phenylmorpholine], the “attenuation of separation-induced vocalisations when administered alone” value in the test with guinea-pig pups (0.25 mg/kg s.c. alone) is “failure”. Also, in the test with guinea-pig pups (0.25 mg/kg s.c. with buspirone 0.25 mg/kg s.c.), the “potentiation of the inhibitory effect of buspirone on separation-induced vocalisations” value is reported as “failure”. For the same molecule, the “potentiation of the inhibitory effect of fluoxetine on separation-induced vocalisations” value in the test on guinea-pig pups (0.25 mg/kg s.c. with fluoxetine 2 mg/kg i.p.) is listed as “failure”.

As to `O=C1CC2(CCCC2)CC(=O)N1CCCCN1CCN(c2ncccn2)CC1` [buspirone, reference compound], the “attenuation … compared with baseline” value in the test on guinea-pig pups (0.25 mg/kg s.c. alone) is on record as “approximately 25%”. Moreover, the “guinea-pig vocalisation ID50” value in the test with guinea-pig pups (s.c.) is recorded as 0.5 mg/kg s.c.

Regarding `CN1C(=O)CN=C(c2ccccc2)c2cc(Cl)ccc21` [diazepam, reference compound], the “guinea-pig vocalisation ID50” value with guinea-pig pups (s.c.) is recorded as 0.7 mg/kg s.c.

Turning to `CNCCC(Oc1ccc(C(F)(F)F)cc1)c1ccccc1` (stereo not drawn) [fluoxetine, reference compound], in the test with guinea-pig pups (2 mg/kg i.p. alone), the “attenuation … compared with baseline” value was “approximately 25%”. The “guinea-pig vocalisation ID50” value in the test on guinea-pig pups (i.p.) came to 2.7 mg/kg i.p.

Turning to `CN(C)CCCN1c2ccccc2CCc2ccccc21` [imipramine, reference compound], the “foot-tapping ID50” value in the test on gerbils (s.c., foot-tapping induced by substance P) turned out to be 3.8 mg/kg s.c. In addition, the “guinea-pig vocalisation ID50” value in the test with guinea-pig pups (s.c.) was 5.4 mg/kg s.c.
